Data from patent US20260092074A1, “Annelated Pyridines as Steroidogenesis Inhibitors, Preparation Method and Use Thereof” (Guangzhou Vinnocent Pharmaceutical Limited, priority 2022, published 2026).

Legend:
human CYP11B1 = biological target: T1, human CYP11B1 (Homo sapiens, UniProt P15538); experiment: Inhibition of hCYP11B1 in transfected V79 cells; type: cell-based; details: hamster V79 cells expressing human CYP11B1; substrate 11-deoxycortisol 200 nM
T1 construct: expressed in transfected cells
T1 sequence (P15538 25-503): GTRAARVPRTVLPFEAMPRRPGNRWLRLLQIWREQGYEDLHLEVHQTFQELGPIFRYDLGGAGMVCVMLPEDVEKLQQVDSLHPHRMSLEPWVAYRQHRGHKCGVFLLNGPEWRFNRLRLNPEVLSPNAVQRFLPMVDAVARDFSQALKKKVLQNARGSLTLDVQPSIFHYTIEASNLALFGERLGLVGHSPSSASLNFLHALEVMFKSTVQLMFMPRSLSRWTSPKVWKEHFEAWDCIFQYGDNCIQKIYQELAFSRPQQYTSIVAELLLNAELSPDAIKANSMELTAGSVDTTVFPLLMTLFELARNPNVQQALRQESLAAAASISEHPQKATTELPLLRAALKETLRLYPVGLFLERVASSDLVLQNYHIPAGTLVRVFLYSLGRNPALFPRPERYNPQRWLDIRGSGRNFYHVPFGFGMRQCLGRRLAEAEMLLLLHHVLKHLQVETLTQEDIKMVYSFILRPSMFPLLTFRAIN
How it was run: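 V79 hamster cells stably expressing human CYP11B1 and rat NADPH-P450 reductase were preincubated with compounds for 2 h. 11-Deoxycortisol (200 nM) was then added as substrate for 30 min before ethyl acetate quench. Substrate and product were quantified by LC-MS/MS or HPLC at 260 nm, and IC50 was derived from percent inhibition.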

human CYP11B2 = biological target: T2, human CYP11B2 (Homo sapiens, UniProt P19099); experiment: Inhibition of hCYP11B2 in transfected V79 cells; type: cell-based; details: hamster V79 cells expressing human CYP11B2; substrate 11-deoxycorticosterone 200 nM
T2 construct: expressed in transfected cells
T2 sequence (P19099 25-503): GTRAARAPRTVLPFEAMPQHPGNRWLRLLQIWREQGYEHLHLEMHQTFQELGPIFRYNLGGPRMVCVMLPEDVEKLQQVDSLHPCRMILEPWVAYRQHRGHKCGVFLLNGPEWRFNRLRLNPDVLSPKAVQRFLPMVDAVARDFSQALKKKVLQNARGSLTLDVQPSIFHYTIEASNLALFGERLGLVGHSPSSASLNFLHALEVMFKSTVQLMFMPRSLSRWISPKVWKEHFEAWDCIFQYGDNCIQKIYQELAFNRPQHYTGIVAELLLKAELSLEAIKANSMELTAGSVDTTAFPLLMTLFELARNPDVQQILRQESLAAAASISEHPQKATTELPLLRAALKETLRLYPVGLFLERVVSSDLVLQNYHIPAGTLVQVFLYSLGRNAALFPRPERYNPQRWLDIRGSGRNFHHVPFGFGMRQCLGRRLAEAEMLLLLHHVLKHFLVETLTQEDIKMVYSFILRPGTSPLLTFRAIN
How it was run: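 Hamster V79 cells stably co-expressing human CYP11B2 and rat NADPH-P450 reductase were pre-incubated with compounds for 2 hours, then given 200 nM 11-deoxycorticosterone for 30 minutes before ethyl acetate quench. Substrate and product were quantified by LC-MS/MS or HPLC at 260 nm, and IC50 was derived from percent inhibition.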

SMILES	IC50 (human CYP11B1) [nM]	IC50 (human CYP11B2) [nM]
N#Cc1ccc(S(=O)(=O)N2CCOc3c(-c4ccc5c(c4)NC(=O)C5)cncc32)cc1 [O132, 4-((8-(2-Oxoindolin-6-yl)-2,3-dihydro-4H-pyrido[4,3-b][1,4]oxazin-4-yl)sulfonyl)benzonitrile]	168	5.4
N#CC12CC(c3cncc4c3OCCN4C(=O)C3CN(Cc4cccc(F)c4)C3)(C1)C2 [O133, 3-(4-(1-(3-Fluorobenzyl)azetidine-3-carbonyl)-3,4-dihydro-2H-pyrido[4,3-b][1,4]oxazin-8-yl)bicyclo[1.1.1]pentane-1-carbonitrile]	4220	55
N#CN1CC2(C1)CN(c1cncc3c1OCCN3C(=O)C1CN(Cc3cccc(F)c3)C1)C2 [O134, 6-(4-(1-(3-Fluorobenzyl)azetidine-3-carbonyl)-3,4-dihydro-2H-pyrido[4,3-b][1,4]oxazin-8-yl)-2,6-diazaspiro[3.3]heptane-2-carbonitrile]	3580	52
O=C(C1CN(Cc2cccc(F)c2)C1)N1CCOc2c(N3CCn4cnnc4C3)cncc21 [O135, (8-(5,6-Dihydro-[1,2,4]triazolo[4,3-a]pyrazin-7 (8H)-yl)-2,3-dihydro-4H-pyrido[4,3-b][1,4]oxazin-4-yl)(1-(3-fluorobenzyl)azetidin-3-yl)methanone]	4130	66
N#Cc1ccc(-c2cncc3c2OCCN3C(=O)N2CC(Cc3cccc(F)c3)C2)cc1 [O136, 4-(4-(3-(3-Fluorobenzyl)azetidine-1-carbonyl)-3,4-dihydro-2H-pyrido[4,3-b][1,4]oxazin-8-yl)benzonitrile]	2020	22
O=C(C1CN(Cc2cccc(F)c2)C1)N1CCOc2c(N3CCn4ccnc4C3)cncc21 [O137, (8-(5,6-Dihydroimidazo[1,2-a]pyrazin-7 (8H)-yl)-2,3-dihydro-4H-pyrido[4,3-b][1,4]oxazin-4-yl)(1-(3-fluorobenzyl)azetidin-3-yl)methanone]	3960	57
N#Cc1ccc(-c2cncc3c2SCCN3Cc2cccc(F)c2)cc1 [S1, 4-(4-(3-Fluorobenzyl)-3,4-dihydro-2H-pyrido[4,3-b][1,4]thiazin-8-yl)benzonitrile]	> 5000	451
N#Cc1ccc(-c2cncc3c2SCCN3Cc2ccc(F)cc2)cc1 [S2, 4-(4-(4-Fluorobenzyl)-3,4-dihydro-2H-pyrido[4,3-b][1,4]thiazin-8-yl)benzonitrile]	> 5000	473
N#Cc1ccc(-c2cncc3c2SCCN3Cc2cccc([N+](=O)[O-])c2)cc1 [S3, 4-(4-(3-Nitrobenzyl)-3,4-dihydro-2H-pyrido[4,3-b][1,4]thiazin-8-yl)benzonitrile]	> 5000	243
N#Cc1ccc(-c2cncc3c2SCCN3C(=O)c2cccc(F)c2)cc1 [S4, 4-(4-(3-Fluorobenzoyl)-3,4-dihydro-2H-pyrido[4,3-b][1,4]thiazin-8-yl)benzonitrile]	1370	34.8
N#Cc1ccc(-c2cncc3c2SCCN3C(=O)c2ccc(F)cc2)cc1 [S5, 4-(4-(4-Fluorobenzoyl)-3,4-dihydro-2H-pyrido[4,3-b][1,4]thiazin-8-yl)benzonitrile]	2980	21
COc1ccc(C(=O)N2CCSc3c(-c4ccc(C#N)cc4)cncc32)cc1 [S6, 4-(4-(4-Methoxybenzoyl)-3,4-dihydro-2H-pyrido[4,3-b][1,4]thiazin-8-yl)benzonitrile]	1740	53
N#Cc1ccc(-c2cncc3c2SCCN3C(=O)c2cccnc2)cc1 [S7, 4-(4-Nicotinoyl-3,4-dihydro-2H-pyrido[4,3-b][1,4]thiazin-8-yl)benzonitrile]	4390	88
Cc1ccc(S(=O)(=O)N2CCSc3c(-c4ccc(C#N)cc4)cncc32)cc1 [S12, 4-(4-Tosyl-3,4-dihydro-2H-pyrido[4,3-b][1,4]thiazin-8-yl)benzonitrile]	2.8	0.18
N#Cc1ccc(-c2cncc3c2SCCN3S(=O)(=O)c2cccc(Cl)c2)cc1 [S14, 4-(4-((3-Chlorophenyl)sulfonyl)-3,4-dihydro-2H-pyrido[4,3-b][1,4]thiazin-8-yl)benzonitrile]	4.8	0.25
N#Cc1ccc(-c2cncc3c2SCCN3S(=O)(=O)c2cccc(C(F)(F)F)c2)cc1 [S16, 4-(4-((3-(Trifluoromethyl)phenyl)sulfonyl)-3,4-dihydro-2H-pyrido[4,3-b][1,4]thiazin-8-yl) benzonitrile]	12	1.05
N#Cc1ccc(-c2cncc3c2SCCN3S(=O)(=O)c2ccc(C(F)(F)F)cc2)cc1 [S17, 4-(4-((4-(Trifluoromethyl)phenyl)sulfonyl)-3,4-dihydro-2H-pyrido[4,3-b][1,4]thiazin-8-yl) benzonitrile]	10.2	0.4
N#Cc1ccc(-c2cncc3c2SCCN3S(=O)(=O)c2cccc(C#N)c2)cc1 [S20, 3-((8-(4-Cyanophenyl)-2,3-dihydro-4H-pyrido[4,3-b][1,4]thiazin-4-yl)sulfonyl)benzonitrile]	3.1	0.1
N#Cc1ccc(-c2cncc3c2SCCN3S(=O)(=O)c2ccc(C#N)cc2)cc1 [S21, 4-((8-(4-Cyanophenyl)-2,3-dihydro-4H-pyrido[4,3-b][1,4]thiazin-4-yl)sulfonyl)benzonitrile]	15	0.3
N#Cc1ccc(-c2cncc3c2SCCN3S(=O)(=O)c2cccc3ccccc23)cc1 [S22, 4-(4-(Naphthalen-1-ylsulfonyl)-3,4-dihydro-2H-pyrido[4,3-b][1,4]thiazin-8-yl)benzonitrile]	51	5.2

These reach a lower IC50 (human CYP11B1). Values come first.

IC50 (human CYP11B1) [nM]	IC50 (human CYP11B2) [nM]	SMILES
1.5	0.1	N#Cc1ccc(-c2cncc3c2SCCN3S(=O)(=O)c2ccccc2)cc1 [S8, 4-(4-(Phenylsulfonyl)-3,4-dihydro-2H-pyrido[4,3-b][1,4]thiazin-8-yl)benzonitrile]
0.7	0.2	N#Cc1ccc(-c2cncc3c2SCCN3S(=O)(=O)c2cccc(F)c2)cc1 [S9, 4-(4-((3-Fluorophenyl)sulfonyl)-3,4-dihydro-2H-pyrido[4,3-b][1,4]thiazin-8-yl)benzonitrile]
0.8	0.1	N#Cc1ccc(-c2cncc3c2SCCN3S(=O)(=O)c2ccc(F)cc2)cc1 [S10, 4-(4-((4-Fluorophenyl)sulfonyl)-3,4-dihydro-2H-pyrido[4,3-b][1,4]thiazin-8-yl)benzonitrile]
2.1	0.15	Cc1cccc(S(=O)(=O)N2CCSc3c(-c4ccc(C#N)cc4)cncc32)c1 [S11, 4-(4-(m-Tolylsulfonyl)-3,4-dihydro-2H-pyrido[4,3-b][1,4]thiazin-8-yl)benzonitrile]
1.2	0.1	COc1ccc(S(=O)(=O)N2CCSc3c(-c4ccc(C#N)cc4)cncc32)cc1 [S13, 4-(4-((4-Methoxyphenyl)sulfonyl)-3,4-dihydro-2H-pyrido[4,3-b][1,4]thiazin-8-yl)benzonitrile]
2.2	0.05	N#Cc1ccc(-c2cncc3c2SCCN3S(=O)(=O)c2ccc(Cl)cc2)cc1 [S15, 4-(4-((4-Chlorophenyl)sulfonyl)-3,4-dihydro-2H-pyrido[4,3-b][1,4]thiazin-8-yl)benzonitrile]
2	0.1	N#Cc1ccc(-c2cncc3c2SCCN3S(=O)(=O)c2cccc([N+](=O)[O-])c2)cc1 [S18, 4-(4-((3-Nitrophenyl)sulfonyl)-3,4-dihydro-2H-pyrido[4,3-b][1,4]thiazin-8-yl)benzonitrile]
1.2	0.1	N#Cc1ccc(-c2cncc3c2SCCN3S(=O)(=O)c2ccc([N+](=O)[O-])cc2)cc1 [S19, 4-(4-((4-Nitrophenyl)sulfonyl)-3,4-dihydro-2H-pyrido[4,3-b][1,4]thiazin-8-yl)benzonitrile]
1.9	0.2	N#Cc1ccc(-c2cncc3c2SCCN3S(=O)(=O)c2ccc3ccccc3c2)cc1 [S23, 4-(4-(Naphthalen-2-ylsulfonyl)-3,4-dihydro-2H-pyrido[4,3-b][1,4]thiazin-8-yl)benzonitrile]
